Results as given in US5789434A, “Derivatives of substituted 4-biarylbutyric acid as matrix metalloprotease inhibitors” (priority 1995, dated 1998).
pIC50: −log10 of the molar value.

Columns and labels:
MMP-3 = target: T1, MMP-3 (Homo sapiens, UniProt P08254); assay: Primary Thiopeptilide MMP-3 Inhibition Assay; type: biochemical; conditions: for pIC50: pH 6.5, 13 nM stromelysin, x (n) = average of n determinations, read-out: MMP-3 Thiopep. IC50; for inhibition at 5 µM: read-out: MMP-3 Thiopep. % inhibition
T1 construct: Truncated Prostromelysin-257 was expressed in a soluble form in E.coli; made in house; host or cells: E. coli
Protocol: Enzyme: recombinant stromelysin expressed in E.coli and purified as described above. […] The protocols for the assay of compounds as stromelysin inhibitors was the same as that used for MMP-9 except that the assay buffer was 50 mM MES, pH 6.5 containing 150 mM NaCl, 10 mM CaCl2, 0.005% Brij, and 1% DMSO.

MMP-9 = target: T2, MMP-9 (Homo sapiens, UniProt P14780); assay: Thiopeptilide MMP-9 Inhibition Assay; type: biochemical; conditions: for pIC50: pH 6.5, x (n) = average of n determinations, read-out: MMP-9: Thiopep. IC50; for inhibition at 5 µM: read-out: MMP-9: Thiopep. % inhibition
T2 construct: from tissue; host or cells: human polymorphonuclear leukocytes (PMN) from whole blood (New York Blood Center), PMA-stimulated supernatant
T2 sequence (P14780 107-707 limits assumed): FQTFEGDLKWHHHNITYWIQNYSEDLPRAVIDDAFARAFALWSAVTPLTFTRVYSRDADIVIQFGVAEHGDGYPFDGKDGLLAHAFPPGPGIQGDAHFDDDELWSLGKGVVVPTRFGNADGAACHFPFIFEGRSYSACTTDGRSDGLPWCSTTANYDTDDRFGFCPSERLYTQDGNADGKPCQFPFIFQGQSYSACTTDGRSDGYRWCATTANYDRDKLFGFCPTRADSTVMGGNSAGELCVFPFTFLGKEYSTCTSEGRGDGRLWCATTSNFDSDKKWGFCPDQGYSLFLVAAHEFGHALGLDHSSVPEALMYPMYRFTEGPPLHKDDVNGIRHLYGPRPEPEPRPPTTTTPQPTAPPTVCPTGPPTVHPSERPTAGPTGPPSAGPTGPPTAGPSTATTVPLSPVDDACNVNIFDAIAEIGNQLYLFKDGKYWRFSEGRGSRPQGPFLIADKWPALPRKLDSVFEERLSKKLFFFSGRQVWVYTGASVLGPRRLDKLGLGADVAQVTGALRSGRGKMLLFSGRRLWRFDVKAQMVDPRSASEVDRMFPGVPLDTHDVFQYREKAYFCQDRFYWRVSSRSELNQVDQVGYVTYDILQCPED

T1 sequence (P08254 100-274 limits assumed): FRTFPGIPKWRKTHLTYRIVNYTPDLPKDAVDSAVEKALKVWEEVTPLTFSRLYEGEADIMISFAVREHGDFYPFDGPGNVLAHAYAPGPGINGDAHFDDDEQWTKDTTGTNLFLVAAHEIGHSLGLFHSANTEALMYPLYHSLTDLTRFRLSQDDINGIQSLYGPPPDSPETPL

Row | Compound | pIC50 (MMP-3) | pIC50 (MMP-9) | inhibition at 5 µM (MMP-3) [%] | inhibition at 5 µM (MMP-9) [%]
1 | O=C(CC(CCOCc1ccccc1)C(=O)O)c1ccc(-c2ccc(Cl)cc2)cc1 (stereo not drawn) [Example 190, [1,1'-Biphenyl]-4-butanoic acid, 4'-chloro-γ-oxo-α-[2-(phenylmethoxy)ethyl]-] | 6.64 | 6.67 | – | –
2 | CC(C)(C)C(=O)SCC(CC(=O)c1ccc(-c2ccc(Cl)cc2)cc1)C(=O)O (single isomer, unassigned) [Example 195, [1,1'-Biphenyl]-4-butanoic acid, 4'-chloro-α-[[(2,2-dimethyl-1-oxopropyl)thio]methyl]-γ-oxo-] | – | – | 31 | 20
3 | O=C(CC(CCCc1ccccc1)C(=O)O)c1ccc(-c2cccs2)cc1 (stereo not drawn) [Example 80, Benzenepentanoic acid, α-[2-oxo-2-[4-(2-thienyl)phenyl]ethyl]-] | 6.33 | 6.10 | – | –
4 | O=C(CC(CCCc1ccccc1)c1nnn[nH]1)c1ccc(-c2ccc(Br)cc2)cc1 (stereo not drawn) [Example 344, 1-Hexanone, 1-(4'-bromo[1,1'-biphenyl]-4-yl)-6-phenyl-3-(1H-tetrazol-5-yl)-] | – | – | 11 | 14
5 | O=C(c1ccc(-c2ccc(Cl)cc2)cc1)[C@H]1CCC[C@H]1C(=O)O (relative stereo) [Example 288, Cyclopentanecarboxylic acid, 2-[(4'-chloro[1,1'-biphenyl]-4-yl)carbonyl]-, cis-] | – | – | 40 | 46
6 | CCCCCCCOc1ccc(-c2ccc(C(=O)CC(CCCc3ccccc3)C(=O)O)cc2)cc1 (stereo not drawn) [Example 92, [1,1'-Biphenyl]-4-butanoic acid, 4'-(heptyloxy)-γ-oxo-α-(3-phenylpropyl)-] | – | – | 60 | 26
7 | O=C(CC(CSc1cccc(Cl)c1)C(=O)O)c1ccc(-c2ccc(Cl)cc2)cc1 (stereo not drawn) [Example 242, [1,1'-Biphenyl]-4-butanoic acid, 4'-chloro-α-[[(3-chlorophenyl)thio]methyl]-γ-oxo-] | 6.31 | 5.89 | – | –
8 | NCc1ccc(-c2ccc(C(=O)CC(CCCc3ccccc3)C(=O)O)cc2)cc1 (stereo not drawn) [Example 59, [1,1'-Biphenyl]-4-butanoic acid, 4'-(aminomethyl)γ-oxo-α-(3-phenylpropyl)-] | – | 5.70 | 33 | –
9 | O=C(CC(CSc1ccc(Br)cc1)C(=O)O)c1ccc(-c2ccc(Cl)cc2)cc1 (stereo not drawn) [Example 210, [1,1'-Biphenyl]-4-butanoic acid, α-[[(4-bromophenyl)thio]methyl]-4'-chloroγ-oxo-] | 6.30 | 6.69 | – | –
10 | Cc1ccccc1S[C@@H]1CC[C@H](C(=O)c2ccc(-c3ccc(Cl)cc3)cc2)[C@H]1C(=O)O (relative stereo) [Example 304, Cyclopentanecarboxylic acid, 2-[(4'-chloro[1,1'-biphenyl]-4-yl)carbonyl]-5-[(2-methylphenyl)thio]-, (1α,2β,5α)-] | 7.26 | 7.38 | – | –
11 | O=C(O)CCC(=O)c1ccc(-c2ccc(F)cc2)cc1 [Example 8, [1,1'-Biphenyl]-4-butanoic acid, 4'-fluoro-γ-oxo-, reference compound] | – | – | 26 | 0
12 | O=C(CC(CSc1ccccc1Cl)C(=O)O)c1ccc(-c2ccc(Cl)cc2)cc1 (stereo not drawn) [Example 230, [1,1'-Biphenyl]-4-butanoic acid, 4'-chloro-α-[[(2-chlorophenyl)thio]methyl]-γ-oxo-] | 6.60 | 6.26 | – | –
13 | O=C(CC(CSC1CCCCC1)C(=O)O)c1ccc(-c2ccc(Cl)cc2)cc1 (stereo not drawn) [Example 214, [1,1'-Biphenyl]-4-butanoic acid, 4'-chloro-α-[(cyclohexylthio)methyl]-γ-oxo-] | 6.77 | 5.66 | – | –
14 | C=CCC(CC(=O)c1ccc(-c2ccc(Cl)cc2)cc1)C(=O)O (stereo not drawn) [Example 119, [1,1'-Biphenyl]-4-butanoic acid, 4'-chloro-γ-oxo-α-2-propenyl-] | 6.12 | 5.74 | – | –
15 | O=C(O)CCC(O)c1ccc(-c2ccccc2F)cc1 (stereo not drawn) [Example 39, [1,1'-Biphenyl]-4-butanoic acid, 2'-fluoro-γ-hydroxy-, reference compound] | – | – | 16 | 4
16 | C=C(CC(=O)c1ccc(-c2ccc(Cl)cc2)cc1)C(=O)O [Example 23, [1,1'-Biphenyl]-4-butanoic acid, 4'-chloro-α-methylene-γ-oxo-, reference compound] | – | – | 24 | 0
17 | O=C(O)CC1(CC(=O)c2ccc(-c3ccc(Cl)cc3)cc2)CCCC1 [Example 336, Cyclopentaneactic acid, 1-[2-(4'-chloro[1,1'-biphenyl]-4-yl)-2-oxoethyl]-] | 5.85 | 6.22 | – | –
18 | CNC(=O)[C@@H]1CCCN1C(=O)C(CC(=O)c1ccc(-c2ccc(Cl)cc2)cc1)CC(C)C (stereo partly drawn) [Example 346, 2-Pyrrolidinecarboxamide, 1-[2-[2-(4'-chloro[1,1'-biphenyl]-4-yl)-2-oxoethyl]-4-metyl-1-oxopentyl]-N-methyl-, (2S)-] | 5.22 | – | – | 34

Row | Compound | pIC50 (MMP-3) | pIC50 (MMP-9) | inhibition at 5 µM (MMP-3) [%] | inhibition at 5 µM (MMP-9) [%]
19 | O=C(CC(CCCc1ccccc1)C(=O)O)c1ccc(-c2ccc(OCCCc3ccccc3)cc2)cc1 (stereo not drawn) [Example 90, [1,1'-Biphenyl]-4-butanoic acid, γ-oxo-4'-(3-phenylpropoxy)-α-(3-phenylpropyl)-] | – | – | 36 | 11
20 | CC(C)CC(CC(=O)c1ccc(-c2ccc(F)cc2F)cc1)C(=O)O (stereo not drawn) [Example 20, [1,1'-Biphenyl]-4-butanoic acid, 2',4'-difluoro-α-(2-methylpropyl)-γ-oxo-] | – | – | 32 | 34
21 | CSCCCC(CC(=O)c1ccc(-c2ccc(Cl)cc2)cc1)C(=O)O (stereo not drawn) [Example 266, [1,1'-Biphenyl]-4-butanoic acid, 4'-chloro-α-[3-(methylthio)propyl]-γ-oxo-] | 6.60 | 6.19 | – | –
22 | O=C(O)CCC(=O)c1ccc(-c2cccc(Cl)c2)cc1 [Example 12, [1,1'-Biphenyl]-4-butanoic acid, 3'-chloro-γ-oxo-, reference compound] | – | – | 17 | 0
23 | O=C(CC(CCCCCCc1ccccc1)C(=O)O)c1ccc(-c2ccc(Cl)cc2)cc1 (stereo not drawn) [Example 181, [1,1'-Biphenyl]-4-butanoic acid, 4'-chloro-γ-oxo-α-(6-phenylhexyl)-] | 6.48 | 6.54 | – | –
24 | O=C(CC(CSCCc1ccccc1)C(=O)O)c1ccc(-c2ccc(Cl)cc2)cc1 (stereo not drawn) [Example 205, [1,1'-Biphenyl]-4-butanoic acid, 4'-chloro-γ-oxo-α-[[(2-phenylethyl)thio]methyl]-] | 7.06 | 6.77 | – | –
25 | Cc1ccc(SCC(CC(=O)c2ccc(-c3ccc(Cl)cc3)cc2)C(=O)O)cc1 (stereo not drawn) [Example 211, [1,1'-Biphenyl]-4-butanoic acid, 4'-chloro-α-[[(4-methylphenyl)thio]methyl]-γ-oxo-] | 6.36 | 6.55 | – | –
26 | Cc1ccc(-c2ccc(C(=O)CC(CC(C)C)C(=O)O)cc2)cc1 (stereo not drawn) [Example 21, [1,1'-Biphenyl]-4-butanoic acid, 4'-methyl-α-(2-methylpropyl)-γ-oxo-] | 6.12 | 5.92 | – | –
27 | CSc1ccc(-c2ccc(C(=O)CC(CCCc3ccccc3)C(=O)O)cc2)cc1 (stereo not drawn) [Example 51, [1,1'-Biphenyl]-4-butanoic acid, 4'-(methylthio)-γ-oxo-α-(3-phenylpropyl)-] | 6.77 | 7.00 | – | –
28 | O=C(CC(CCc1ccccc1)C(=O)O)c1ccc(-c2ccc([N+](=O)[O-])cc2)cc1 (stereo not drawn) [Example 124, [1,1'-Biphenyl]-4-butanoic acid, 4'-nitro-γ-oxo-α-(2-phenylethyl)-] | 6.74 | – | – | 28
29 | C=Cc1ccc(-c2ccc(C(=O)CC(CCCc3ccccc3)C(=O)O)cc2)cc1 (stereo not drawn) [Example 55, [1,1'-Biphenyl]-4-butanoic acid, 4'-ethenyl-γ-oxo-α-(3-phenylpropyl)-] | 6.77 | 6.96 | – | –
30 | O=C(CC(CSc1cccs1)C(=O)O)c1ccc(-c2ccc(Cl)cc2)cc1 (stereo not drawn) [Example 199, [1,1'-Biphenyl]-4-butanoic acid, 4'-chloro-γ-oxo-α-[(2-thienylthio)methyl]-] | 6.77 | 6.70 | – | –
31 | CC(C)(C)C(=O)SCC(CC(=O)O)C(=O)c1ccc(-c2ccc(Cl)cc2)cc1 (stereo not drawn) [Example 256, [1,1'-Biphenyl]-4-butanoic acid, 4'-chloro-β-[[(2,2-dimethyl-1-oxopropyl)thio]methyl]-γ-oxo-] | 6.22 | 5.52 | – | –
32 | COC(=O)c1ccccc1S[C@H]1CC[C@H](C(=O)c2ccc(-c3ccc(Cl)cc3)cc2)[C@H]1C(=O)O (relative stereo) [Example 298, trans-5-[4-(4-chlorophenyl)phenylcarbonyl]-cis-2-(2-methoxycarbonylphenylthio)cyclopentanecarboxylic acid] | 7.30 | 6.07 | – | –
33 | O=C(CC(CSc1ccccc1C(=O)O)C(=O)O)c1ccc(-c2ccc(Cl)cc2)cc1 (stereo not drawn) [Example 233] | 6.47 | 5.32 | – | –
34 | O=C(O)/C=C/C(=O)c1ccc(-c2ccc(Cl)cc2)cc1 [Example 29, 4-Oxo-4-(4'-chloro-4-biphenyl)but-2-enoic acid, reference compound] | – | – | 28 | 44
35 | CC(=O)SCC(CC(=O)O)C(=O)c1ccc(-c2ccc(Cl)cc2)cc1 (stereo not drawn) [Example 258, [1,1'-Biphenyl]-4-butanoic acid, β-[(acetylthio)methyl]-4'-chloro-γ-oxo-, reference compound] | 6.09 | 5.68 | – | –
36 | O=C(CC(CCCc1ccccc1)C(=O)O)c1ccc(-c2ccc(O)cc2)cc1 (stereo not drawn) [Example 83, [1,1'-Biphenyl]-4-butanoic acid, 4'-hydroxy-γ-oxo-α-(3-phenylpropyl)-] | 6.14 | 5.85 | – | –
